# Experimental data taken from BindingDB's records for doi:10.1016/j.bioorg.2017.03.013 (Birla Institute of Technology, 2017).
# Biological target: Gag-Pol polyprotein (Human immunodeficiency virus type 1 group M subtype B (isolate HXB2), UniProt P04585)
# Assay: HIV-1 RT In-Vitro Assay
# Procedure: The reaction mixture was set with template primer complex, RT enzyme and dNTPs in a lysis buffer with or without inhibitors. The reaction mixture was incubated at 37 °C for 1 h and then transferred to streptavidine-coated microtitre plate (MTP). The biotin-labeled dNTPs that were incorporated in the template due to activity of RT, bound to streptavidine. The unbound dNTPs were washed using wash buffer and anti-DIG-POD was added to the MTP. The DIG-labeled dNTPs incorporated in the template were bound to an anti-DIG-POD antibody. The unbound anti-DIG-POD was washed again with washing buffer and the peroxide substrate (ABST) was added to the MTP. A colored reaction product was produced during the cleavage of the substrate catalyzed by a peroxide enzyme. The absorbance of the sample was determined as an optical density (OD) at 405 nm using a micro titer plate ELISA reader.
row,Compound,IC50 [µM]
1,"CC1CC(=O)Nc2ccccc2N1C(=O)c1ccccc1Br (centres undefined) [5-(2-bromobenzoyl)-4-methyl-1,3,4,5-tetrahydro-2H-1,5-benzodiazepin-2-one (A13)]",92.5
2,"CC1CC(=O)Nc2ccccc2N1C(=O)c1ccccc1Cl (centres undefined) [5-(2-chlorobenzoyl)-4-methyl-1,3,4,5-tetrahydro-2H-1,5-benzodiazepin-2-one (A10)]",8.62
3,"CC1CC(=O)Nc2ccccc2N1C(=O)c1ccccc1F (centres undefined) [5-(2-fluorobenzoyl)-4-methyl-1,3,4,5-tetrahydro-2H-1,5-benzodiazepin-2-one (A7)]",> 100
4,"Cc1ccccc1C(=O)N1c2ccccc2NC(=O)CC1C (centres undefined) [5-(2-methylbenzoyl)-4-methyl-1,3,4,5-tetrahydro-2H-1,5-benzodiazepin-2-one (A2)]",14.3
5,"CC1CC(=O)Nc2ccccc2N1C(=O)c1cccc(Cl)c1 (centres undefined) [5-(3-chlorobenzoyl)-4-methyl-1,3,4,5-tetrahydro-2H-1,5-benzodiazepin-2-one (A11)]",6.87
6,"CC1CC(=O)Nc2ccccc2N1C(=O)c1cccc(F)c1 (centres undefined) [5-(3-fluorobenzoyl)-4-methyl-1,3,4,5-tetrahydro-2H-1,5-benzodiazepin-2-one (A8)]",76.3
7,"COc1cccc(C(=O)N2c3ccccc3NC(=O)CC2C)c1 (centres undefined) [5-(3-methoxybenzoyl)-4-methyl-1,3,4,5-tetrahydro-2H-1,5-benzodiazepin-2-one (A5)]",87.9
8,"Cc1cccc(C(=O)N2c3ccccc3NC(=O)CC2C)c1 (centres undefined) [5-(3-methylbenzoyl)-4-methyl-1,3,4,5-tetrahydro-2H-1,5-benzodiazepin-2-one (A3)]",26.4
9,"CC1CC(=O)Nc2ccccc2N1C(=O)c1ccc(Br)cc1 (centres undefined) [5-(4-bromobenzoyl)-4-methyl-1,3,4,5-tetrahydro-2H-1,5-benzodiazepin-2-one (A14)]",68.7

# The next lines start with the values.
row,IC50 [µM],Compound
1,38.3,"CC1CC(=O)Nc2ccccc2N1C(=O)c1ccc(Cl)cc1 (centres undefined) [5-(4-chlorobenzoyl)-4-methyl-1,3,4,5-tetrahydro-2H-1,5-benzodiazepin-2-one (A12)]"
2,25,"CC1CC(=O)Nc2ccccc2N1C(=O)c1ccc(F)cc1 (centres undefined) [5-(4-fluorobenzoyl)-4-methyl-1,3,4,5-tetrahydro-2H-1,5-benzodiazepin-2-one (A9)]"
3,54.6,"COc1ccc(C(=O)N2c3ccccc3NC(=O)CC2C)cc1 (centres undefined) [5-(4-methoxybenzoyl)-4-methyl-1,3,4,5-tetrahydro-2H-1,5-benzodiazepin-2-one (A6)]"
4,> 100,"Cc1ccc(C(=O)N2c3ccccc3NC(=O)CC2C)cc1 (centres undefined) [5-(4-methylbenzoyl)-4-methyl-1,3,4,5-tetrahydro-2H-1,5-benzodiazepin-2-one (A4)]"
5,17.5,"CC1CC(=O)Nc2ccccc2N1C(=O)c1ccccc1 (centres undefined) [5-(benzoyl)-4-methyl-1,3,4,5-tetrahydro-2H-1,5-benzodiazepin-2-one (A1)]"
